Source: patent publication US7064217B2 (University of Virginia Patent Foundation, priority 2001, dated 2006)
Entries after “also recorded” stand apart in the source; their conditions may differ. Read-outs that look alike come from different tables or passages of the source. Each block holds one compound with its values, some of them ahead of it.

How the values were obtained:
Assay type in all cases: biochemical
zS1P1 = molecular target: T1, zS1P1 (Danio rerio, UniProt Q9DDK4); assay: [γ-35S]GTP binding, zebrafish S1P1 overexpressed in rat RH-7777 cells; settings: GTPγS binding, zebrafish S1P1 in rat RH-7777
T1 construct: expressed in transfected cells; host or cells: rat hepatoma RH-7777
T1 sequence (Q9DDK4 1-362): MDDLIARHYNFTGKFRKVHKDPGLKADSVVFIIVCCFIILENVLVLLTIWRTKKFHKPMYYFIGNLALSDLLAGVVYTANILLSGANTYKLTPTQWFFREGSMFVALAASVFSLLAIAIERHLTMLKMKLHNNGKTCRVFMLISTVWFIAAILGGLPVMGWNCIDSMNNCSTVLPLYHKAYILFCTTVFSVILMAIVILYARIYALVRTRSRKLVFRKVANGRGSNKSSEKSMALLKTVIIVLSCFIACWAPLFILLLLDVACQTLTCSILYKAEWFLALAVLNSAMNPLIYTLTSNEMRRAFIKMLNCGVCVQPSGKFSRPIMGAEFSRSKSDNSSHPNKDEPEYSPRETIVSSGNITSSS
Description: (§1) After incubating for 30 min at 30° C., bound radionuclide was separated from free by filtration through Whatman GF/C paper using a Brandel Cell Harvester (Gaithersburg, Md.).
Rat hepatoma RH7777 cell monolayers were transfected with human or mouse S1P5/pCR3.1 DNA using the calcium phosphate precipitate method, and clonal populations expressing the neomycin phosphotransferase gene were selected by addition of Ge-neticin (G418) to the culture medium. The RH7777 cells were grown in monolayers at 37° C. in a 5%CO2/95% air atmosphere in growth medium consisting of 90% MEM, 10% fetal bovine serum, 2 mM glutamine, and 1 mM sodium pyruvate.
(§2) Assay of cAMP accumulation was performed as described previously (See Im et al., J. Biol. Chem. 275, 14281–14286 (2000), the disclosure of which is incorporated herein). Assays were conducted on populations of 5×10^5 cells stimulated with 1 uM forskolin in the presence of the phosphodiesterase inhibitor […] (IBMX, 1 mM) for 15 min. cAMP was measured by automated radioimmunoassay. The GTPγS studies were performed using zebrafish S1P1 overexpressed rat RH-7777 and human hS1P1, hS1P2, hS1P3 and hS1P5 overexpressed human HEK293 cells.

mS1P5 = molecular target: T2, mS1P5 (Mus musculus, UniProt Q91X56); assay: [γ-35S]GTP binding to HEK293T cell membranes, mS1P5; settings: GTPγS binding
T2 construct: expressed in transfected cells; host or cells: HEK293T
Description: (§3) Human or mouse S1P5 DNA was mixed with an equal amount of DNA encoding a rat Gi2R protein as well as DNAs encoding cow β1 and γ2 proteins and used to transfect monolayers of HEK293T cells using the calcium phosphate precipitate method. After 60 h, cells were harvested, and microsomes were prepared, aliquoted, and stored at −70° C. until use.
as §1, §2

hS1P3 = molecular target: T3, hS1P3 (Homo sapiens, UniProt Q99500); assay: [γ-35S]GTP binding to HEK293T cell membranes, hS1P3; settings: GTPγS binding; for EC50: read-out: EC50 Values (nM) for S1P Analogues at Recombinant S1P Receptors, hS1P3, HEK293; for activity at the S1P3 receptor (inverse agonism/antagonism or agonism): Example 3 series
T3 construct: expressed in transfected cells; host or cells: HEK293T
Description: as §3, §1, §2
(§4) An additional series of compounds was tested using the GTPγS binding assay described in Example 2 and in Im et al., J. Biol. Chem. 275, 14281–14286 (2000), the disclosure of which is incorporated herein).

hS1P1 = molecular target: T4, hS1P1 (Homo sapiens, UniProt P21453); assay: [γ-35S]GTP binding to HEK293T cell membranes, hS1P1; settings: GTPγS binding; for EC50: read-out: EC50 Values (nM) for S1P Analogues at Recombinant S1P Receptors, hS1P1, HEK293
T4 construct: expressed in transfected cells; host or cells: HEK293T
Description: as §3, §1, §2, §4

hS1P5 = molecular target: T5, hS1P5 (Homo sapiens, UniProt Q9H228); assay: [γ-35S]GTP binding to HEK293T cell membranes, hS1P5; settings: read-out: EC50 Values (nM) for S1P Analogues at Recombinant S1P Receptors, hS1P5; GTPγS binding; HEK293
T5 construct: expressed in transfected cells; host or cells: HEK293T
Description: as §3, §1, §2, §4

hS1P2 = molecular target: T6, hS1P2 (Homo sapiens, UniProt O95136); assay: [γ-35S]GTP binding to HEK293T cell membranes, hS1P2; settings: GTPγS binding; for activity at the S1P2 receptor: Example 3 series; for EC50: read-out: EC50 Values (nM) for S1P Analogues at Recombinant S1P Receptors, hS1P2, HEK293
T6 construct: expressed in transfected cells; host or cells: HEK293T
Description: as §3, §1, §2, §4

hS1P4 = molecular target: T7, hS1P4 (Homo sapiens, UniProt O95977); assay: [γ-35S]GTP binding to HEK293T cell membranes, hS1P4; settings: GTPγS binding, primary alcohols
T7 construct: expressed in transfected cells; host or cells: HEK293T
T7 sequence (O95977 1-384): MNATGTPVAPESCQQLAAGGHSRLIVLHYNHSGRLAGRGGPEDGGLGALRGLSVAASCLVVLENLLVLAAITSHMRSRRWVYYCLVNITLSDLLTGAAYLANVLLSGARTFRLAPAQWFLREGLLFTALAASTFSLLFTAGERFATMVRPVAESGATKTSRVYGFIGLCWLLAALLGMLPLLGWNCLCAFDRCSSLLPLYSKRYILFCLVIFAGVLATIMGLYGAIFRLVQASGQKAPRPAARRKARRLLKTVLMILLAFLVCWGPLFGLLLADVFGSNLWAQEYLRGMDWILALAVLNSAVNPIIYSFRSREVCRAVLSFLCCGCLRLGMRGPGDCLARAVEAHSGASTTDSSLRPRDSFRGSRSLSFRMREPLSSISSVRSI
Description: as §1, §4

S1P receptors = assay: [γ-35S]GTP binding assay, statements across the recombinant S1P receptors tested; settings: GTPγS binding
Description: as §3, §1, §2, §4

[1] = read-out: EC50 Values (nM) for S1P Analogues at Recombinant S1P Receptors, zS1P1
[2] = read-out: EC50 Values (nM) for S1P Analogues at Recombinant S1P Receptors, mS1P5

T6 sequence (O95136 whole entry): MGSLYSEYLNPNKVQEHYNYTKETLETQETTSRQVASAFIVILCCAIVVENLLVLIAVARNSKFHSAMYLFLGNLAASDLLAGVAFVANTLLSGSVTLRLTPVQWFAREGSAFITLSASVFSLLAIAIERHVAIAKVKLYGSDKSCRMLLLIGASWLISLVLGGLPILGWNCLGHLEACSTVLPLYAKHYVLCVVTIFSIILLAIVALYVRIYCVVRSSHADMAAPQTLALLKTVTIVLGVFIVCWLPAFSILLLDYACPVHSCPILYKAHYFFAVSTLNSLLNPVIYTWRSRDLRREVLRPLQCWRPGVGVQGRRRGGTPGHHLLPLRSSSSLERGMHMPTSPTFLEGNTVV
T5 sequence (Q9H228 whole entry): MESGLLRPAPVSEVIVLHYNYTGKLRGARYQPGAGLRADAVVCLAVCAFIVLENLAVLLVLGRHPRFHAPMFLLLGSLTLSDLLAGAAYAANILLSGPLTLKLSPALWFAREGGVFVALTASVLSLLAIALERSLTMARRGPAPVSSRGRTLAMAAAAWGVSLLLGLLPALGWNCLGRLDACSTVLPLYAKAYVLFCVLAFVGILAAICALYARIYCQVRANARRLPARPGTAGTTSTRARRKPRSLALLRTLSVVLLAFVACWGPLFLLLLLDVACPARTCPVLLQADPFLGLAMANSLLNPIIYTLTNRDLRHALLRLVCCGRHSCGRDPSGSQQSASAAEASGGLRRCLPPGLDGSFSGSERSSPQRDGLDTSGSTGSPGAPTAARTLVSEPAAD
T4 sequence (P21453 whole entry): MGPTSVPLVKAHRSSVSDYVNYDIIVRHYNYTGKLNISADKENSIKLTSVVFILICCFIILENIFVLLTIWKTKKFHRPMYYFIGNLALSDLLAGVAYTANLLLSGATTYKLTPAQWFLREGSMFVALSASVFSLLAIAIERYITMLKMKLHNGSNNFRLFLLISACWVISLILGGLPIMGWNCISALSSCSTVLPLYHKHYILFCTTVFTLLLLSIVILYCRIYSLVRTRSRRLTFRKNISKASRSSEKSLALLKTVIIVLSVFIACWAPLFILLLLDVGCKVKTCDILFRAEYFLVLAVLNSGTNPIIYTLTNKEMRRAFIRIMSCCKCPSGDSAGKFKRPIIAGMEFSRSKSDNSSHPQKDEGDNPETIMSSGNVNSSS
T3 sequence (Q99500 whole entry): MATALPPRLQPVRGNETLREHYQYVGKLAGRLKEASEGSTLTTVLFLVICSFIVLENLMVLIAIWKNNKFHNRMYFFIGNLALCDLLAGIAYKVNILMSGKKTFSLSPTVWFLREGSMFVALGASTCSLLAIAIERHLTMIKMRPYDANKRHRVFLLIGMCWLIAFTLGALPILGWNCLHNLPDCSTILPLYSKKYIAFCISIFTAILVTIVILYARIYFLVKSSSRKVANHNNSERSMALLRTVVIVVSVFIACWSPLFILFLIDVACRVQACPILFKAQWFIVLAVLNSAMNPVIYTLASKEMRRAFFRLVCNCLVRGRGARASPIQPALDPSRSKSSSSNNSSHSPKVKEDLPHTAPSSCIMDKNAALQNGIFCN
T2 sequence (Q91X56 whole entry): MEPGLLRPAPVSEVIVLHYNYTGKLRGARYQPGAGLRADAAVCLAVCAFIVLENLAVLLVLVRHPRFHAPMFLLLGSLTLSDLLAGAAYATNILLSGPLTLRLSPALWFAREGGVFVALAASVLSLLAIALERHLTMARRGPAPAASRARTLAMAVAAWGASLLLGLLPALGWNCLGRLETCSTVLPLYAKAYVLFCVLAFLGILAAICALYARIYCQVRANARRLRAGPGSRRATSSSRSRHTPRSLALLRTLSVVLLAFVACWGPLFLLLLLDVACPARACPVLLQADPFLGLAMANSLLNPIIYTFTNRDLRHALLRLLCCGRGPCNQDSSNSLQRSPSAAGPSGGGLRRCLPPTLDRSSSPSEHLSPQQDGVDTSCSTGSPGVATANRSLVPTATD

SMILES: CCCCCCCCCCCCCCCCNC(=O)[C@@H](N)COP(=O)(O)O [VPC22063]
EC50 (zS1P1): > 5000 nM
EC50 (mS1P5): 1330 nM
EC50 (hS1P3): 879 nM
EC50 (hS1P1): 1800 nM
EC50 (hS1P5): 1220 nM

SMILES: CCCCCCCCc1ccccc1NC(=O)[C@H](N)COP(=O)(O)O [VPC23089]
activity at the S1P2 receptor (hS1P2): failed to show significant activity; also recorded: inactive
activity at the S1P3 receptor (inverse agonism/antagonism or agonism) (hS1P3): inverse agonists

SMILES: CCCCCCCCCCCCCCNC(=O)[C@H](N)COP(=O)(O)O [VPC22135]
EC50 (zS1P1): 1620 nM
EC50 (hS1P2): 2110 nM
EC50 (mS1P5): 1820 nM
potency relative to S1P at human S1P3 receptor (hS1P3): approached the potency of S1P
EC50 (hS1P3): 50.8 nM
potency relative to S1P at human S1P1 receptor (hS1P1): approached the potency of S1P
EC50 (hS1P1): 12.7 nM

SMILES: CCCCCCCCCCCCC/C=C/[C@@H](O)[C@@H](N)COP(=O)(O)O [Compound S1P, Sphingosine-1-phosphate, reference compound]
EC50 (zS1P1): 54.6 nM
EC50 (mS1P5): 12.7 nM
EC50 (hS1P3): 1.1 nM
EC50 (hS1P1): 0.9 nM

SMILES: CCCCCCCCCCCCNC(=O)[C@@H](N)COP(=O)(O)O [VPC22041]
EC50 (zS1P1): 2050 nM
EC50 (hS1P2): 973 nM
EC50 (mS1P5): > 5000 nM
EC50 (hS1P3): 845 nM
EC50 (hS1P1): 598 nM
EC50 (hS1P5): 646 nM

SMILES: CCCCCCCCc1ccccc1NC(=O)[C@H](N)CO.O=C(O)C(F)(F)F [VPC23087]
agonist activity at the S1P4 receptor (hS1P4): good agonist activity
agonist activity at S1P receptors (S1P receptors): significant agonist activity
activity at the S1P2 receptor (hS1P2): failed to show significant activity; also recorded: inactive

SMILES: CCCCCCCCCCCCCCNC(=O)[C@@H](N)COP(=O)(O)O [VPC22051]
EC50 (zS1P1; [1]): > 5000 nM
EC50 (hS1P2): 2760 nM
EC50 (mS1P5; [2]): > 5000 nM
EC50 (hS1P3): 602 nM
EC50 (hS1P1): 322 nM
EC50 (hS1P5): > 5000 nM

SMILES: CCCCCCCCCCCCCCOC(=O)[C@@H](N)COP(=O)(O)O.O=C(O)C(F)(F)F [VPC22053]
EC50 (zS1P1; [1]): > 5000 nM
EC50 (hS1P2): 2680 nM
EC50 (mS1P5; [2]): 2010 nM
loss of potency relative to enantiomer VPC22135 at S1P3 receptor (hS1P3): more than 1 log order
EC50 (hS1P3): 862 nM
loss of potency relative to enantiomer VPC22135 at S1P1 receptor (hS1P1): more than 1 log order
EC50 (hS1P1): 397 nM
EC50 (hS1P5): 1610 nM

SMILES: CCCCCCCCCCc1cccc(NC(=O)[C@H](N)CO)c1.O=C(O)C(F)(F)F [VPC23065]
agonist activity at the S1P4 receptor (hS1P4): good agonist activity
agonist activity at S1P receptors (S1P receptors): significant agonist activity
activity at the S1P2 receptor (hS1P2): failed to show significant activity; also recorded: inactive

Further lines, with some results ahead:

activity at the S1P3 receptor (inverse agonism/antagonism or agonism) (hS1P3): inverse agonists
SMILES: CCCCCCc1cccc(NC(=O)[C@H](N)COP(=O)(O)O)c1.O=C(O)C(F)(F)F [VPC23031]
activity at the S1P2 receptor (hS1P2): failed to show significant activity; also recorded: inactive

activity at the S1P3 receptor (inverse agonism/antagonism or agonism) (hS1P3): agonism
SMILES: CCCCCCCCCc1cccc(NC(=O)[C@H](N)COP(=O)(O)O)c1.O=C(O)C(F)(F)F [VPC23079]
activity at the S1P2 receptor (hS1P2): failed to show significant activity; also recorded: inactive

agonist activity at the S1P4 receptor (hS1P4): good agonist activity
agonist activity at S1P receptors (S1P receptors): significant agonist activity
SMILES: CCCCCCCCCc1cccc(NC(=O)[C@H](N)CO)c1.O=C(O)C(F)(F)F [VPC23075]
activity at the S1P2 receptor (hS1P2): failed to show significant activity; also recorded: inactive

activity at the S1P3 receptor (inverse agonism/antagonism or agonism) (hS1P3): inverse agonists
activity at S1P1 (antagonism) (hS1P1; competition with S1P): antagonism
SMILES: CCCCCCCCc1cccc(NC(=O)[C@H](N)COP(=O)(O)O)c1 [VPC23019]
activity at the S1P2 receptor (hS1P2): failed to show significant activity; also recorded: inactive

activity at the S1P3 receptor (inverse agonism/antagonism or agonism) (hS1P3): agonism
SMILES: CCCCCCCCCCc1cccc(NC(=O)[C@H](N)COP(=O)(O)O)c1.O=C(O)C(F)(F)F [VPC23069]
activity at the S1P2 receptor (hS1P2): failed to show significant activity; also recorded: inactive
